Test results: patent US20260232668A1 (Kadmon Corporation, LLC, priority 2023, published 2026)
“Also recorded” adds a separate entry of the source. Read-outs that look alike come from different tables or passages of the source.

Key:
[1] = tested on: B cells (CD20+) in human whole blood; assay: anti-CD79b-mediated B-cell activation in human whole blood (CD69 on CD20+ B cells, flow cytometry); type: cell-based; conditions: anti-CD79b stimulation
Method: Flow cytometric analyses were conducted using BD LSRFortessa™ Cell Analyzer (BD Biosciences) and the data analyzed by FlowJo (BD Biosciences). B-cell activation is determined by an increase in surface expression of activation marker CD69 on B cells (CD20+) following anti-CD79b stimulation. The experiment was conducted in duplicate.

[2] = tested on: murine model of sclerodermatous chronic graft-versus-host disease (GVHD); assay: Example 4: murine model of sclerodermatous chronic GVHD, ibrutinib and rilzabrutinib; type: in vivo, mouse; conditions: for animals that did not display progressive disease by Day 56 (standard GVHD scale): vehicle 9%; for lung sum and individual component histopathology scores vs vehicle: ibrutinib 12.5 and 25 mg/kg (Groups 4, 5), rilzabrutinib 20 and 40 mg/kg (Groups 6, 7), not statistically significant
Excerpt: Animals were acclimatized for at least three days prior to study commencement.
Sclerodermatous chronic GVHD was induced in C57Bl/6 (CD45.1) mice using a single acute dose of 8.5 Gy of TBI on Day −1. […] The BM cells were isolated using standard flushing practices. […] Additionally, following TBI on Day −1 and up to Day 8, all animals were given supplemental high calorie highly palatable food in a dish on the bottom of the cage. Following transfer on Day 0, and then again as needed, all animals were given 1 mL/animal/day of supplemental fluids (warmed ringers solution) via subcutaneous injection. An additional 1 mL fluid may have been given in the pm on an as needed basis.
Ibrutinib. Ibrutinib was formulated with vehicle (0.5% MC).
Animals were treated twice daily on Days 21-55.
Animals in Groups 4 and 5 were administered ibrutinib for the first/AM dose and vehicle for the last/PM dose each day of dosing.
The modified GVHD score for scGVHD was based on 5 criteria: percentage of weight change (0-4), posture (hunching) (0-3), activity (0-3), fur texture (0-4), and skin integrity (0-4) (maximum index=18). […] Animals that appeared to be in pain were administered buprenorphine BID, as needed.
Progression-free survival was defined as an increase in GVHD Score of […] in comparison to Day 21 GVHD Score (standard or modified).
Fixed lung and skin samples were embedded in paraffin, sectioned at 5 microns, and slides stained with hematoxylin and eosin (H&E). One slide per block was sectioned and stained with hematoxylin and eosin (H&E). All slides were evaluated and scored with light microscopy by a board-certified veterinary pathologist.
Parametric data (weight change) were evaluated using one-way ANOVA with Dunnett's multiple comparisons test to compare all groups to the vehicle control group. Non-parametric data (GVHD scores) were analyzed with Kruskal-Wallis with Dunn's post-hoc test. All statistical analyses were performed using GraphPad Prism 8.4.3 Software (La Jolla, CA). Statistical significance was achieved when p<0.05.
Skin and Lung Histopathology. […] One slide per block was sectioned and stained with H&E. All slides were evaluated and scored with light microscopy by a board-certified veterinary pathologist. […] Lung range: 0-10; skin range: 0-30.
Dermal Thickness Measurements. Using H&E-stained slides, the dermis was measured (μm) in five areas across the tissue, with a mean calculated for each sample. Measurements were performed from epidermal basement membrane to the most superficial border of dermal collagen with subcuticular adipose. These measurements were only performed in areas of non-tangentially sectioned tissue, free of histologic artifacts, and with an intact epidermis.
Statistical Analysis. Data are presented as mean±standard error of the mean (SEM). Semi-quantitative sum and component histopathology scores were analyzed (GraphPad Prism) by non-parametric ANOVA (Kruskal-Wallis H test) with Dunn's multiple comparison post-hoc tests; dermal measurements were analyzed by one-way ANOVA with post-hoc Tukey tests as appropriate. Significance was set at p<0.05 for all tests.

[3] = tested on: sclerodermatous chronic GVHD model; assay: Example 2: mouse model of sclerodermatous chronic GVHD, single agents; type: in vivo
Method: Animals were not replaced during the course of the study. Mice were handled in accordance with standard conventional procedures. Animals were acclimatized for a minimum of 3 days prior to study commencement. […] The study was performed in animal rooms provided with filtered air at a temperature of 70±5° F. and 50% 20% relative humidity and an automatic timer for a light/dark cycle of 12 hours on and 12 hours off with no twilight.
On Day 0, a combination of bone marrow cells and splenocytes were transferred from donor LP/J mice to the recipients, as indicated in Table 2. […] The BM cells were isolated using standard flushing practices. […] All animals were monitored daily, and weight, survival, and disease progression were recorded following the scoring system described in Table 4.
On Day 20, animals were redistributed into groups so that the average scGVHD score was similar across all groups. Treatment was initiated on Day 21 and continued until Day 55. All dosing was performed BID to control for stress associated with oral gavage. […] On Days 33, 36, 39, 42, and 45, all animals were photographed under isoflurane anesthesia to assess disease severity.

[4] = tested on: murine model of sclerodermatous chronic graft-versus-host disease (GVHD); conditions: for survival: PO Days 21-55: belumosudil 125 mg/kg Days 21-32 then 100 mg/kg, ibrutinib 20 mg/kg, rilzabrutinib 40 mg/kg BID, vehicle 91.7%
[5] = cited from earlier work
[6] = dose groups not distinguished in the legend

Compound: CC(C)(C=C(C#N)C(=O)N1CCC[C@@H](n2nc(-c3ccc(Oc4ccccc4)cc3F)c3c(N)ncnc32)C1)N1CCN(C2COC2)CC1 [rilzabrutinib, (R)-2-[3-[4-amino-3-(2-fluoro-4-phenoxy-phenyl)pyrazolo[3,4-d]pyrimidin-1-yl]piperidine-1-carbonyl]-4-methyl-4-[4-(oxetan-3-yl)piperazin-1-yl]pent-2-enenitrile]
- IC50 ([1]; Homo sapiens, B-cell, dose-response 10 μM to 0.00017 μM, read-out: IC50 of inhibition of B-cell activation in whole blood): 9.5 nM
- body weight change (AUC Day 0-56) vs vehicle ([2]; 20 mg/kg BID (Group 6)): notably more weight gain
- body weight change, death weight carried, vs vehicle ([2]; 20 mg/kg BID (Group 6)): trend of increased weight gain
- modified GVHD score (AUC) vs vehicle ([2]; 20 mg/kg BID (Group 6)): notably lower modified GVHD scores
- modified GVHD score, death score carried: trend of lowered scores vs vehicle ([2]; 20 mg/kg BID (Group 6)): dampened after adjusting for survivor bias
- standard GVHD score (AUC) vs vehicle ([2]; 20 mg/kg BID (Group 6)): notably lower standard GVHD scores
- standard GVHD score, death score carried: trend of lowered scores vs vehicle ([2]; 20 mg/kg BID (Group 6)): dampened after adjusting for survivor bias
- dermal thickness (H&E) ([2]; 20 mg/kg BID (Group 6), among-group p=0.3): small reduction in mean thickness
- animals that did not display progressive disease by Day 56 (standard GVHD scale) ([2]; 20 mg/kg BID (Group 6)): 30%
- survival ([2]; 20 mg/kg BID PO, Days 21-55 (Group 6), vehicle 82%): 80%
- modified GVHD score (AUC) vs vehicle ([2]; 40 mg/kg BID (Group 7)): notably lower modified GVHD scores
- modified GVHD score, death score carried: trend of lowered scores vs vehicle ([2]; 40 mg/kg BID (Group 7)): dampened after adjusting for survivor bias
- standard GVHD score (AUC) vs vehicle ([2]; 40 mg/kg BID (Group 7)): notably lower standard GVHD scores
- standard GVHD score, death score carried: trend of lowered scores vs vehicle ([2]; 40 mg/kg BID (Group 7)): dampened after adjusting for survivor bias
- dermal fibrosis score vs vehicle ([2]; 40 mg/kg BID (Group 7), p=0.09): statistical trend toward lowered scores
- animals that did not display progressive disease by Day 56 (standard GVHD scale) ([2]; 40 mg/kg BID (Group 7)): 10%
- survival ([2]; 40 mg/kg BID PO, Days 21-55 (Group 7), vehicle 82%): 90%
- dermal thickness (FIG. 11 legend) [2, 6]: slight reduction in dermal thickness
- skin sum histopathology score (FIG. 10A legend) [2, 6]: Slightly lowered sum scores
- skin sum histopathology score vs vehicle ([2]; either dose, 20 and 40 mg/kg BID (Groups 6 and 7)): lowered sum scores
- lung sum and individual component histopathology scores vs vehicle [2]: Small reductions
- lung sum and individual component histopathology scores vs vehicle ([2]; listed as rilzabrunitib): slight reductions in sum histopathology scores
- disease severity (GVHD scores, total GVHD burden AUC) ([3]; rilzabrutinib 20 and 40 mg/kg BID PO, Days 21-55): dose-dependent, with a greater reduction in disease severity observed at the higher 40 mg/kg dose
- standard GVHD score, death score carried, vs vehicle ([4]; Groups 4-8, rilzabrutinib 40 mg/kg BID (Group 6)): trend of lower standard GVHD scores
- survival [4]: survived to the conclusion of the study

Compound: C=CC(=O)N1CCC[C@@H](n2nc(-c3ccc(Oc4ccccc4)cc3)c3c(N)ncnc32)C1 [ibrutinib, 1-[(3R)-3-[4-amino-3-(4-phenoxyphenyl)-1H-pyrazolo[3,4-d]pyrimidin-1-yl]-1-piperidinyl]-2-propen-1-one, reference compound]
- body weight change (AUC Day 0-56) vs vehicle ([2]; 12.5 mg/kg (Group 4)): notably more weight gain
- body weight change, death weight carried, vs vehicle ([2]; 12.5 mg/kg (Group 4)): trend of increased weight gain
- animals that did not display progressive disease by Day 56 (standard GVHD scale) ([2]; 12.5 mg/kg (Group 4)): 10%
- survival ([2]; 12.5 mg/kg PO AM dose, Days 21-55 (Group 4), to Day 56): survived until the end of the study
- modified GVHD score (AUC) vs vehicle ([2]; 25 mg/kg (Group 5)): notably lower modified GVHD scores
- modified GVHD score, death score carried: trend of lowered scores vs vehicle ([2]; 25 mg/kg (Group 5)): dampened after adjusting for survivor bias
- skin sum histopathology score vs vehicle ([2]; 25 mg/kg (Group 5)): lowered sum scores
- standard GVHD score (AUC) vs vehicle ([2]; 25 mg/kg (Group 5)): notably lower standard GVHD scores
- standard GVHD score, death score carried: trend of lowered scores vs vehicle ([2]; 25 mg/kg (Group 5)): dampened after adjusting for survivor bias
- dermal fibrosis score vs vehicle ([2]; 25 mg/kg (Group 5), p=0.02): statistically lowered dermal fibrosis scores
- animals that did not display progressive disease by Day 56 (standard GVHD scale) ([2]; 25 mg/kg (Group 5)): 40%
- survival ([2]; 25 mg/kg PO AM dose, Days 21-55 (Group 5), vehicle 82%): 90%
- skin sum histopathology score (FIG. 10A legend) [2, 6]: Slightly lowered sum scores
- lung sum and individual component histopathology scores vs vehicle ([2]; listed as ibrunitib): Small reductions; also recorded: slight reductions in sum histopathology scores
- GVHD scores ([3]; ibrutinib 25 mg/kg PO AM dose, Days 21-55, vs vehicle): numerical reduction in GVHD scores
- survival [4]: 90%

Compound: CC(C)NC(=O)COc1cccc(-c2nc(Nc3ccc4[nH]ncc4c3)c3ccccc3n2)c1 [belumosudil, 2-{3-[4-(1H-indazol-5-ylamino)-2-quinazolinyl]phenoxy}-N-(propan-2-yl) acetamide]
- belumosudil exposure ([5]; coadministration with proton pump inhibitors): decreases belumosudil exposure
- belumosudil exposure ([5]; coadministration with strong CYP3A inducers): decreases belumosudil exposure
- activated B cells (CD69 positive) ([1]; 10 μM compound, whole blood, anti-CD79b alone 73.4%): 82.4%
- inhibition of B-cell activation in whole blood (dose-response graph) ([1]; 10 μM to 0.00017 μM): did not inhibit
- survival [4]: 80%
